For 26 compounds, IC50 results are on record in patent US9242987B2, “Heterocyclyl pyrazolopyrimidine analogues as JAK inhibitors” (Cellzome Limited, priority 2009, dated 2016).

The target of one experiment is T1, JAK3 (Homo sapiens, UniProt P52333).
T1 construct: endogenous in cells; host or cells: Mixed Molt4/Ramos lysate (1:2)
T1 sequence (P52333 1-1124): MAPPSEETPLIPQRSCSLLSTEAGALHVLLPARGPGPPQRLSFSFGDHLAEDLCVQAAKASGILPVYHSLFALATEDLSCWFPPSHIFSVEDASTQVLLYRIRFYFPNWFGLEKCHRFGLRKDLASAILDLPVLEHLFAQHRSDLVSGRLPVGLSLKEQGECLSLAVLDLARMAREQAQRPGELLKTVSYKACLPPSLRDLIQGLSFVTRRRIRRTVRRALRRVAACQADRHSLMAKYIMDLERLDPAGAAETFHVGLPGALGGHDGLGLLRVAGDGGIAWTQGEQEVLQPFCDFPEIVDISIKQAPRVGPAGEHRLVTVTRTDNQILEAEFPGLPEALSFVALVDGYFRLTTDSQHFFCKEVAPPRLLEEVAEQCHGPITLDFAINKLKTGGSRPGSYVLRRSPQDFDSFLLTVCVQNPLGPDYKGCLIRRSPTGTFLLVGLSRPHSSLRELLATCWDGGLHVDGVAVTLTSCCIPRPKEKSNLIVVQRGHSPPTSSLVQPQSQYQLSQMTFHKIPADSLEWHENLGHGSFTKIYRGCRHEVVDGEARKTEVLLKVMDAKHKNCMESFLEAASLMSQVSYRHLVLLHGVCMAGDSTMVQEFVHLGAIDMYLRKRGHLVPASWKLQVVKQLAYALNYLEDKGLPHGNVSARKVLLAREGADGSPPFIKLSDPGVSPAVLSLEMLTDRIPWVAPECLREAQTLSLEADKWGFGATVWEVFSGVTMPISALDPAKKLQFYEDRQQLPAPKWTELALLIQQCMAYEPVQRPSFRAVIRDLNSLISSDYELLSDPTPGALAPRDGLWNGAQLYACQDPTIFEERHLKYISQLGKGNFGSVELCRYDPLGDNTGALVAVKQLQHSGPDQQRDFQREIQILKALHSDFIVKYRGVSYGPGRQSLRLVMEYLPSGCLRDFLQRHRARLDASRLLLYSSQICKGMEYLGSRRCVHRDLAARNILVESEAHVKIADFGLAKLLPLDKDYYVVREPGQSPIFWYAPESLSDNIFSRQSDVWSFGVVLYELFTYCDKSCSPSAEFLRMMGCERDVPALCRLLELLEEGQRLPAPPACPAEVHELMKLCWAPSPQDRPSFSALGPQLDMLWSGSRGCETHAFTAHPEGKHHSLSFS
Nature of the experiment: Kinobeads assay, JAK3. It is filed as binding. Conditions: mixed Molt4/Ramos cell lysate, dot blot detection. Put shortly: (§1)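 Lysate from Molt4 and Ramos cells combined 1:2 at 10 mg/mL total protein met test compound and an aminopyrido-pyrimidine affinity matrix for 3 h in the cold. Captured JAK2 and JAK3, after elution, were measured by specific-antibody dot blot on an infrared system; dose-response curves yielded IC50.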

The next experiment has as its target T2, JAK2 (Homo sapiens, UniProt O60674).
T2 construct: endogenous in cells; host or cells: Mixed Molt4/Ramos lysate (1:2)
Briefly: Kinobeads assay, JAK2. It is filed as binding. Conditions: mixed Molt4/Ramos cell lysate, dot blot detection. Put shortly: as §1

The structures appear in SMILES notation. Where only a bound is given, the exact number is not on record here.

T2 sequence (O60674 whole entry): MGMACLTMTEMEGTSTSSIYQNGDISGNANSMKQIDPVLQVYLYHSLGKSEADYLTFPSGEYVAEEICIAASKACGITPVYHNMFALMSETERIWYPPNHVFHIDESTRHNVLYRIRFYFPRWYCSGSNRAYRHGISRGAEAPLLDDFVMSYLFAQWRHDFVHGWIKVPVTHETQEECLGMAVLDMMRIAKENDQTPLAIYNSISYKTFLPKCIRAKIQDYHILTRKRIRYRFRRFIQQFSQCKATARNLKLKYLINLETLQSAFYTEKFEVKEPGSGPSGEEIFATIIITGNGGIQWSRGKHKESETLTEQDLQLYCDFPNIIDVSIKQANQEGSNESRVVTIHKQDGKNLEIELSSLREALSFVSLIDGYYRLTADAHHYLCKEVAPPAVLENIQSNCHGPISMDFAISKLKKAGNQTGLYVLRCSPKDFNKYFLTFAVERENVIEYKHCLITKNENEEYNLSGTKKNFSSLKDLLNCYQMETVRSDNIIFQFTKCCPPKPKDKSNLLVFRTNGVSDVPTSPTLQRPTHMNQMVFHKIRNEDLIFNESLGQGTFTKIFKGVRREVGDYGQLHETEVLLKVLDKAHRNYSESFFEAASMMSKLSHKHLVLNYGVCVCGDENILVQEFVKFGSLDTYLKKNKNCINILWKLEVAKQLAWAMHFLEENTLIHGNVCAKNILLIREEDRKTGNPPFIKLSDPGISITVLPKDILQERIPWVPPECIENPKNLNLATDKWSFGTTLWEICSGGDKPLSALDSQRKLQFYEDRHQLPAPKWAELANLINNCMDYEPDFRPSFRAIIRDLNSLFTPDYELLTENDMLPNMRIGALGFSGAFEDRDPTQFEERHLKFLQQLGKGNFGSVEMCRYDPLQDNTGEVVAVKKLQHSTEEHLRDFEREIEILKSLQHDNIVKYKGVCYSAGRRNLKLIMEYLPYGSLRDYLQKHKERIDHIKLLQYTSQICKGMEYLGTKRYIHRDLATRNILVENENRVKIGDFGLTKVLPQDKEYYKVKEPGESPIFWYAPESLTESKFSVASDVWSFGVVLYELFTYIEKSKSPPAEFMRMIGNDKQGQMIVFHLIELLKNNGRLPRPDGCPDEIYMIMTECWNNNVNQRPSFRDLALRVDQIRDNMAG

The term IC50 denotes the midpoint of a concentration-inhibition curve. Lower therefore signals greater potency. As for `Cn1cc(Nc2ncc3cnn(Cc4ccccc4NS(=O)(=O)CC(F)(F)F)c3n2)cn1` [Example 134], the IC50 is below 100 nM against JAK3 and 1000 to 10000 nM against JAK2.
The like results for `Cn1cc(Nc2ncc3cnn(-c4ccc(C(N)=O)cc4)c3n2)cn1` [Example 135, 4-(6-((1-Methyl-1H-pyrazol-4-yl)amino)-1H-pyrazolo[3,4-d]pyrimidin-1-yl)benzamide] were, in that order, 100 to 1000 nM and 1000 to 10000 nM.
The like results for `CNC(=O)c1ccc(-n2ncc3cnc(Nc4cnn(C)c4)nc32)cc1` [Example 136, N-methyl-4-(6-((1-methyl-1H-pyrazol-4-yl)amino)-1H-pyrazolo[3,4-d]pyrimidin-1-yl)benzamide] were, in that order, 100 to 1000 nM and 1000 to 10000 nM.
The like results for `Cn1cc(Nc2ncc3cnn(-c4ccc(C(=O)N5CCOCC5)cc4)c3n2)cn1` [Example 137, (4-(6-((1-Methyl-1H-pyrazol-4-yl)amino)-1H-pyrazolo[3,4-d]pyrimidin-1-yl)phenyl)(morpholino)methanone] were, in that order, below 100 nM and 100 to 1000 nM.
Turning to `Cn1cc(Nc2ncc3cnn(-c4ccc(S(N)(=O)=O)c(F)c4)c3n2)cn1` [Example 138, 2-Fluoro-4-(6-((1-methyl-1H-pyrazol-4-yl)amino)-1H-pyrazolo[3,4-d]pyrimidin-1-yl)benzenesulfonamide], the IC50 on JAK3 was in the range of 100 to 1000 nM; at JAK2 it was 1000 to 10000 nM.
In the same order, the values of `Cn1cc(Nc2ncc3cnn(-c4ccc(S(=O)(=O)NCCO)cc4)c3n2)cn1` [Example 139, N-(2-Hydroxyethyl)-4-(6-((1-methyl-1H-pyrazol-4-yl)amino)-1H-pyrazolo[3,4-d]pyrimidin-1-yl)benzenesulfonamide] are 100 to 1000 nM and 1000 to 10000 nM.
The like results for `Cn1cc(Nc2ncc3cnn(Cc4cccc(NS(C)(=O)=O)c4)c3n2)cn1` [Example 140, N-(3-((6-((1-Methyl-1H-pyrazol-4-yl)amino)-1H-pyrazolo[3,4-d]pyrimidin-1-yl)methyl)phenyl)methanesulfonamide] were, in that order, below 100 nM and 1000 to 10000 nM.
In the same order, the values of `CC(C)S(=O)(=O)Nc1cccc(Cn2ncc3cnc(Nc4cnn(C)c4)nc32)c1` [Example 141, N-(3-((6-((1-Methyl-1H-pyrazol-4-yl)amino)-1H-pyrazolo[3,4-d]pyrimidin-1-yl)methyl)phenyl)propane-2-sulfonamide] are 100 to 1000 nM and at least 10000 nM.
With `Cn1cc(Nc2ncc3cnn(Cc4c(F)cccc4NS(C)(=O)=O)c3n2)cn1` [Example 142], the IC50 at JAK3 was below 100 nM; against JAK2, 100 to 1000 nM.
The like results for `Fc1ccccc1Cn1ncc2cnc(Nc3cnn(CCN4CCCCC4)c3)nc21` [Example 143, 1-(2-Fluorobenzyl)-N-(1-(2-(piperidin-1-yl)ethyl)-1H-pyrazol-4-yl)-1H-pyrazolo[3,4-d]pyrimidin-6-amine] were, in that order, below 100 nM and 1000 to 10000 nM.
In the same order, the values of `Fc1ccccc1Cn1ncc2cnc(Nc3cnn(CCCN4CCCCC4)c3)nc21` [Example 144, 1-(2-Fluorobenzyl)-N-(1-(3-(piperidin-1-yl)propyl)-1H-pyrazol-4-yl)-1H-pyrazolo[3,4-d]pyrimidin-6-amine] are below 100 nM and 100 to 1000 nM.
The like results for `Fc1ccccc1Cn1ncc2cnc(Nc3cnn(CCCN4CCOCC4)c3)nc21` [Example 145, 1-(2-Fluorobenzyl)-N-(1-(3-morpholinopropyl)-1H-pyrazol-4-yl)-1H-pyrazolo[3,4-d]pyrimidin-6-amine] were, in that order, below 100 nM and 100 to 1000 nM.
As for `Cn1cc(Nc2ncc3cnn(-c4cccc(C(=O)N5CCOCC5)c4)c3n2)cn1` [Example 146, (3-(6-((1-Methyl-1H-pyrazol-4-yl)amino)-1H-pyrazolo[3,4-d]pyrimidin-1-yl)phenyl)(morpholino)methanone], the IC50 lay in the range of 100 to 1000 nM on JAK3 and 1000 to 10000 nM against JAK2.
The like results for `Cn1cc(Nc2ncc3cnn(-c4cccc(C(=O)NCCO)c4)c3n2)cn1` [Example 147, N-(2-Hydroxyethyl)-3-(6-((1-methyl-1H-pyrazol-4-yl)amino)-1H-pyrazolo[3,4-d]pyrimidin-1-yl)benzamide] were, in that order, 100 to 1000 nM and at least 10000 nM.
As to `Cn1cc(Nc2ncc3cnn(-c4ccc(C(=O)NCCO)cc4)c3n2)cn1` [Example 148, N-(2-Hydroxyethyl)-4-(6-((1-methyl-1H-pyrazol-4-yl)amino)-1H-pyrazolo[3,4-d]pyrimidin-1-yl)benzamide], the IC50 at JAK3 lay in the range of 100 to 1000 nM; against JAK2 it was 1000 to 10000 nM.
In the same order, the values of `CN1CCN(C(=O)c2ccc(-n3ncc4cnc(Nc5cnn(C)c5)nc43)cc2)CC1` [Example 149, (4-(6-((1-Methyl-1H-pyrazol-4-yl)amino)-1H-pyrazolo[3,4-d]pyrimidin-1-yl)phenyl)(4-methylpiperazin-1-yl)methanone] are 100 to 1000 nM and 1000 to 10000 nM.
The like results for `Cc1nn(CC(F)F)cc1Nc1ncc2cnn(Cc3cc(F)ccc3F)c2n1` [Example 150, 1-(2,5-Difluorobenzyl)-N-(1-(2,2-difluoroethyl)-3-methyl-1H-pyrazol-4-yl)-1H-pyrazolo[3,4-d]pyrimidin-6-amine] were, in that order, below 100 nM and 1000 to 10000 nM.
The like results for `Cc1nn(CC(F)F)cc1Nc1ncc2cnn(Cc3cc(F)ccc3C#N)c2n1` [Example 151, 2-((6-((1-(2,2-Difluoroethyl)-3-methyl-1H-pyrazol-4-yl)amino)-1H-pyrazolo[3,4-d]pyrimidin-1-yl)methyl)-4-fluorobenzonitrile] were, in that order, below 100 nM and 100 to 1000 nM.
Take `COc1nn(CC(F)F)cc1Nc1ncc2cnn(Cc3cc(F)ccc3F)c2n1` [Example 152, 1-(2,5-Difluorobenzyl)-N-(1-(2,2-difluoroethyl)-3-methoxy-1H-pyrazol-4-yl)-1H-pyrazolo[3,4-d]pyrimidin-6-amine]: the IC50 against JAK3 was below 100 nM; against JAK2, 1000 to 10000 nM.
In the case of `COc1nn(CC(F)F)cc1Nc1ncc2cnn(Cc3cc(F)ccc3C#N)c2n1` [Example 153, 2-((6-((1-(2,2-Difluoroethyl)-3-methoxy-1H-pyrazol-4-yl)amino)-1H-pyrazolo[3,4-d]pyrimidin-1-yl)methyl)-4-fluorobenzonitrile], the IC50 against JAK3 is below 100 nM; against JAK2, 100 to 1000 nM.
In the same order, the values of `Cc1c(F)cccc1Cn1ncc2cnc(Nc3cnn(CC(F)F)c3)nc21` [Example 154, N-(1-(2,2-Difluoroethyl)-1H-pyrazol-4-yl)-1-(3-fluoro-2-methylbenzyl)-1H-pyrazolo[3,4-d]pyrimidin-6-amine] are 100 to 1000 nM and 1000 to 10000 nM.
The like results for `Fc1cccc(Cn2ncc3cnc(Nc4cnn(CC(F)F)c4)nc32)c1F` [Example 155, 1-(2,3-Difluorobenzyl)-N-(1-(2,2-difluoroethyl)-1H-pyrazol-4-yl)-1H-pyrazolo[3,4-d]pyrimidin-6-amine] were, in that order, below 100 nM and 1000 to 10000 nM.
The like results for `Fc1c(Cl)cccc1Cn1ncc2cnc(Nc3cnn(CC(F)F)c3)nc21` [Example 156, 1-(3-Chloro-2-fluorobenzyl)-N-(1-(2,2-difluoroethyl)-1H-pyrazol-4-yl)-1H-pyrazolo[3,4-d]pyrimidin-6-amine] were, in that order, 100 to 1000 nM and 1000 to 10000 nM.
For the compound `Fc1ccc(F)c(Cn2ncc3cnc(Nc4cnn(CC(F)F)c4)nc32)c1F` [Example 157, N-(1-(2,2-Difluoroethyl)-1H-pyrazol-4-yl)-1-(2,3,6-trifluorobenzyl)-1H-pyrazolo[3,4-d]pyrimidin-6-amine], the IC50 is below 100 nM on JAK3 and 100 to 1000 nM on JAK2.
Turning to `Cn1cc(Nc2ncc3cnn(Cc4cc(F)cc(F)c4F)c3n2)cn1` [Example 158, N-(1-Methyl-1H-pyrazol-4-yl)-1-(2,3,5-trifluorobenzyl)-1H-pyrazolo[3,4-d]pyrimidin-6-amine], the IC50 on JAK3 and on JAK2 was below 100 nM each time.
As for `COc1ccc(F)c(Cn2ncc3cnc(Nc4cnn(C)c4)nc32)c1F` [Example 159, 1-(2,6-Difluoro-3-methoxybenzyl)-N-(1-methyl-1H-pyrazol-4-yl)-1H-pyrazolo[3,4-d]pyrimidin-6-amine], the 50% inhibitory concentration (IC50) against JAK3 is below 100 nM; against JAK2 it was 1000 to 10000 nM.
